The values that follow come from patent US11827628B2, “Compositions and methods for inhibition of the JAK pathway” (Rigel Pharmaceuticals, Inc., priority 2005, dated 2023).

Molecules are shown by their SMILES. Where two headings read alike, the source gives them in different places.

Experiment [1] has as its system up-regulation of ICAM-1 (CD54) by IFNγ in A549 lung epithelial cells. The experiment can be described thus: A549 Epithelial Line Stimulated with IFNγ (ICAM-1 surface expression, FACS). It is filed as cell-based, human. As to conditions: Homo sapiens, ICAM-1 expression by FACS, read-out: IC50, Example 43. A digest of the protocol: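 ICAM-1 (CD54) flow cytometry on live-gated A549 cells, geometric mean versus dose giving EC50. Cells received IFNγ at 75 ng/mL for 24 h after a 1 h compound pre-treatment spanning 30 μM to 14 nM in medium with 5% FBS and 0.3% DMSO.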
In general terms: In flow cytometry, cells or beads pass a laser one at a time.

Experiment [2] relates to Primary human T-cells. The experiment can be described thus: Primary Human T-Cell Proliferation Assay Stimulated with IL-2 (CellTiter-Glo). As to conditions: Homo sapiens, T-cell, read-out: IC50, Example 42. It is filed as cell-based. The procedure, abridged:
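IC50 derived from CellTiter-Glo ATP signal after 72 hours of IL-2-driven proliferation at 37° C. Cells: primary human T-cells from blood, stimulated beforehand 3-4 days on anti-CD3/anti-CD28 with IL-2, then rested from IL-2 before compound exposure in duplicate; IL-2-free wells served as unstimulated control.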
Background: In ATP-based viability assays light output follows the ATP content of the culture.

The mark [3] stands for this setting: A549, A549 epithelial line stimulated with IFNγ.
The mark [4] stands for this setting: primary human T-cell proliferation stimulated with IL-2.

For the compound `Cc1cc(COc2ccc(Nc3nc(Nc4cccc(S(N)(=O)=O)c4)ncc3F)cc2)no1` [Compound I-230, N2-(3-Aminosulfonylphenyl)-5-fluoro-N4-[4-(5-methylisoxazol-3-yl)methyleneoxyphenyl]-2,4-pyrimidinediamine], the IC50 in experiment [1] (setting [3]) came to 10500 nM; in experiment [2] (setting [4]), 69.2 nM.
For the compound `Cc1cc(COc2ccc(Nc3nc(Nc4cccc(S(=O)(=O)NCc5oc(=O)oc5C)c4)ncc3F)cc2)no1` [Compound I-247, N2-{3-[(N-5-Methyl-1,3-dioxolene-2-one-4-yl)methylene]aminosulfonylphenyl}-5-fluoro-N4-[4-(5-methylisoxazol-3-yl)methyleneoxyphenyl]-2,4-pyrimidinediamine], the IC50 amounted to 11100 nM in experiment [1] (setting [3]) and 119 nM in experiment [2] (setting [4]).
On to `Cc1cc2ccc(CNc3nc(Nc4cccc(S(N)(=O)=O)c4)ncc3F)cc2[nH]1` [Compound X-3], for which the concentration for half-maximal inhibition (IC50) came to 4980 nM in experiment [1] (A549, A549 cells stimulated with IFNγ) and 1090 nM in experiment [2] (primary human T-cells stimulated with IL-2, proliferation).
With `Cc1ccc(Nc2ncc(F)c(Nc3ccc(Oc4cccnc4)cc3)n2)cc1S(N)(=O)=O` [II-12, N2-(3-Aminosulfonyl-4-methylphenyl)-5-fluoro-N4-[4-(3-pyridyloxy)phenyl]-2,4-pyrimidinediamine], the IC50 came out at 5520 nM in experiment [1] (setting [3]) and 409 nM in experiment [2] (setting [4]).
In the case of `Cc1cnc(Nc2ccc(Cl)c(S(N)(=O)=O)c2)nc1Nc1ccc(CCC#N)cc1` [III-12, N2-(3-Aminosulfonyl-4-chlorophenyl)-N4-[4-(2-cyanoethyl)phenyl]-5-methyl-2,4-pyrimidinediamine], the values for the concentration for half-maximal inhibition (IC50) in experiment [1] (setting [3]) and in experiment [2] (setting [4]) were 3520 nM and 107 nM, respectively.
The matching figures for `Cc1cc(Nc2nc(Nc3ccc(C)c(S(N)(=O)=O)c3)ncc2F)ccc1CCC#N` [III-19, N2-(3-Aminosulfonyl-4-methylphenyl)-N4-[4-(2-cyanoethyl)-3-methylphenyl]-5-fluoro-2,4-pyrimidinediamine]: 21900 nM and 174 nM.
Consider `Cc1cc(Nc2nc(Nc3cccc(S(N)(=O)=O)c3)ncc2F)ccc1CCC#N` [III-20, N2-(3-Aminosulfonylphenyl)-N4-[4-(2-cyanoethyl)-3-methylphenyl]-5-fluoro-2,4-pyrimidinediamine], for which the IC50 worked out at 6640 nM in experiment [1] (setting [3]) and 763 nM in experiment [2] (setting [4]).
With `CN(C)C(=O)OCCc1ccc(Nc2nc(Nc3cccc(S(N)(=O)=O)c3)ncc2F)cc1` [III-57, N2-(3-Aminosulfonylphenyl)-N4-{4-[2-(dimethylaminocarbonyloxy)ethyl]phenyl}-5-fluoro-2,4-pyrimidinediamine], the IC50 in experiment [1] (setting [3]) came to 55500 nM; in experiment [2] (setting [4]), 170 nM.
For the compound `CNC(=O)OCCc1ccc(Nc2nc(Nc3cccc(S(N)(=O)=O)c3)ncc2F)cc1` [III-60, N2-(3-Aminosulfonylphenyl)-5-fluoro-N4-{4-[2-(methylaminocarbonyloxy)ethyl]phenyl}-2,4-pyrimidinediamine], the concentration for half-maximal inhibition (IC50) in experiment [1] (setting [3]) is 25500 nM; in experiment [2] (setting [4]), 178 nM.
On the same counts, the results for `NS(=O)(=O)c1ccc(Nc2ncc(F)c(Nc3ccc(Cc4ccncc4)cc3)n2)cc1` [III-71, N2-(4-Aminosulfonylphenyl)-5-fluoro-N4-[4-(4-pyridinylmethyl)phenyl]-2,4-pyrimidinediamine] are 8260 nM and 368 nM.
As for `NS(=O)(=O)c1cccc(Nc2ncc(F)c(NCCc3ccc(-n4ccnc4)cc3)n2)c1` [III-87, N2-(3-Aminosulfonylphenyl)-5-fluoro-N4-[4-(1-imidazolyl)phenethyl]-2,4-pyrimidinediamine], the IC50 in experiment [1] (setting [3]) was 76200 nM; in experiment [2] (setting [4]), 142 nM.
The matching figures for `Cc1ccc(Nc2ncc(F)c(NCCc3ccc(-n4ccnc4)cc3)n2)cc1S(N)(=O)=O` [III-88, N2-(3-Aminosulfonyl-4-methylphenyl)-5-fluoro-N4-[4-(1-imidazolyl)phenethyl]-2,4-pyrimidinediamine]: 10600 nM and 166 nM.

As a reminder, the IC50 is the midpoint of a concentration-inhibition curve.
